The test system of assay [1] is Adriamycin-resistant (ADR-R) 4T1 sublines. Description: MTT viability assay, ADR-resistant 4T1 sublines. It is filed as cell-based. The note with it: Mus musculus; 72 h; ADR-R Clones 1-6. (Tetrazolium dyes change colour on reduction, which living cells bring about.)
Protocol: Human TNBC MDA-MB-468 and MDA-MB-231, and mouse TNBC 4T1 cells were cultured in the chronic presence (>10 months) of Doxorubicin. The parental, wild-type cells were initially treated with 200 nM Doxorubicin for 2-3 weeks, followed by escalation to 400 nM, 1 μM, and 2 μM doses over a period of 3-4 weeks for each dose till resistance developed and the cells became well adapted to growth in 1 μM dose of Doxorubicin for their routine culture. […] Subsequent, routine maintenance of the resistant cells in the presence of the respective drug was continued and multiple, resistant sublines for each of the TNBC cells were isolated and characterized for their growth inhibitory (GI)50 dose of respective therapeutic by the MTT-based viability assays as below.
(§2) In vitro inhibition of cell growth was assessed by MTT (3-[4, 5-dimethyltiazol-2-yl]-2.5-diphenyl tetrazolium bromide) reagent. Cells (5×10^3) were seeded in a 96-well culture plate and subsequently treated with respective agents at different concentrations as mentioned. Control cells were treated with 0.1% DMSO in culture medium. After treatment, the cells were incubated with 1 mg/ml of MTT reagent at 37° C. for 2-4 hours and then MTT was removed and 50 μL of DMSO was added, followed by colorimetric analysis using a multi-label plate reader at 560 nm (Victor3; PerkinElmer, Wellesley, Mass., USA).
Assay [2] relates to MDA-MB-231 TNBC cells, wild type. Description: MTT viability assay, parental MDA-MB-231. The note with it: Homo sapiens, MDA-MB-231; 72 h; Wild type. It is filed as cell-based, human.
Protocol: as §2
Assay [3] relates to drug-resistant TNBC cells. The assay is described as follows: MTT viability assay, drug-resistant TNBC sublines (not singled out). The note with it: read-out: GI50 dose, doxorubicin-resistant TNBC cells. It counts as cell-based. As to the method: (§1) Human TNBC MDA-MB-468 and MDA-MB-231, and mouse TNBC 4T1 cells were cultured in the chronic presence (>10 months) of Doxorubicin. The parental, wild-type cells were initially treated with 200 nM Doxorubicin for 2-3 weeks, followed by escalation to 400 nM, 1 μM, and 2 μM doses over a period of 3-4 weeks for each dose till resistance developed and the cells became well adapted to growth in […] of Doxorubicin for their routine culture. In the case of Cisplatin however, the human TNBC MDA-MB-468 and MDA-MB-231 were initially cultured in continuous presence of 1 μM Cisplatin for 3-4 weeks, and the dose was escalated to 1.5 μM and 3 μM over periods of 3-4 weeks for each dose till resistance developed and cells became adapted to routine culture in 3 μM dose. Subsequent, routine maintenance of the resistant cells in the presence of the respective drug was continued and multiple, resistant sublines for each of the TNBC cells were isolated and characterized for their growth inhibitory (GI)50 dose of respective therapeutic by the MTT-based viability assays as below.

For assay [4], the system named is 4T1 TNBC cells, wild type. The assay is described as follows: MTT viability assay, parental 4T1. It is filed as cell-based, mouse. The note with it: Mus musculus; 72 h; Wild type.
Protocol: as §2
A further assay relates to TNBC cells. The assay is described as follows: MTT viability assay, parental TNBC cells (lines not singled out). It counts as cell-based.
The subject of assay [5] is Adriamycin-resistant (ADR-R) MDA-MB-468 sublines. Description: MTT viability assay, ADR-resistant MDA-MB-468 sublines. It is filed as cell-based, human. As to the method: as §1
Assay [6] concerns Adriamycin-resistant (ADR-R) MDA-MB-231 sublines. Description: MTT viability assay, ADR-resistant MDA-MB-231 sublines. It counts as cell-based. The note with it: Homo sapiens, 72 h, ADR-R Clones 1-6. As to the method:
as §1

The test system of assay [7] is MDA-MB-468 TNBC cells, wild type. The assay is described as follows: MTT viability assay, parental MDA-MB-468. It is filed as cell-based, human. The note with it: Homo sapiens, MDA-MB-468; 72 h; Wild type.
Protocol: as §2
The test system of assay [8] is CSC-enriched populations from xenografts of parental and ADR-resistant MDA-MB-231 TNBC cells. The assay is described as follows: MTT viability of tumor-derived CSC-enriched cells. The note with it: dose-dependent; FIG. 15C. It counts as cell-based, human. As to the method:
The CSC-enriched cells were then treated with ADR, CFM-4.16, or a combination of both for noted dose and time. The cell viabilities were determined by MTT-based assay as in FIGS. 3A-3C, and plotted relative to the MTT values for the respective untreated controls. The histogram columns in panels B and C represent means of three and four independent experiments, respectively; bars, S.E. α, αα, β, ββ, ^*,**,#,##p=<0.03 relative to respective cells treated with ADR+CFM-4.16.
The TNBC cells were obtained from tumors derived from parental and drug-resistant cells or from a two-dimensional culture plate with ˜70-80% confluence. The cells were washed twice in 1×PBS and trypsinized following established protocols. […]
It was next clarified whether and to the extent CFM-4.16 was able to interfere with growth of mammospheres derived from parental and drug-resistant TNBC-cells. […] The growing mammosphere cultures were then exposed to CFM-4.16, and the viabilities of untreated and treated cultures were determined by an MTT-based assay. […]

Like-named read-outs stand apart in the source and are kept apart here.

As for `COc1cccc2c1C(=O)c1c(O)c3c(c(O)c1C2=O)C[C@@](O)(C(=O)CO)C[C@@H]3O[C@H]1C[C@H](N)[C@H](O)[C@H](C)O1` [Adriamycin, Doxorubicin, reference compound], the GI50 in assay [1] is over 10000 nM; in assay [2] it was under 100 nM; in [3], at least 10000 nM; in assay [4] it was about 100 nM; in the assay on TNBC cells (72 h treatment period, read-out: GI50 doses, both the parental TNBC cell lines), under 100 nM; in the assay on TNBC cells (read-out: GI50 dose, parental cells), 20 to 100 nM. The GI50 is about 10000 nM in [5] (Homo sapiens, MDA-MB-468, 72 h, ADR-R Clones 1-6); over 10000 nM in assay [6]; about 20 nM in assay [7]. Besides, in assay [5] (ADR-resistant MDA-MB-468 vs parental), the “GI50 dose higher than wild-type, parental counterparts” value was at least 500 fold. The “viabilities of CSC enriched TNBC cells vs untreated” value in [8] is listed as “significant loss of viabilities”.

The term GI50 denotes the concentration at which growth is held to half of that of the control.

For the origin of these results see patent US10220025B1, “Self-emulsifying formulation of CARP-1 functional mimetics” (Florida A&M University, priority 2016, dated 2019).
